Experimental data reported in patent publication US20110269786A1, “TREATMENT OF MAJOR ADVERSE CARDIAC EVENTS AND ACUTE CORONARY SYNDROME IN DIABETIC PATIENTS USING SECRETORY PHOSPHOLIPASE A2 (SPLA2) INHIBITOR OR SPLA2 INHIBITOR COMBINATION THERAPIES” (priority 2010, published 2011).

Columns and labels:
[1] = in vivo; cited from earlier work
[2] = cited from earlier work
[3] = 80 mg atorvastatin; subjects that had recently experienced an ACS event; cited from earlier work
[4] = Clinical trial in post-ACS subjects: MACE occurrence in ITT population; type: in vivo, human; details: at 16 weeks
Protocol: A-002 was delivered in the form of two 250 mg tablets. In addition, all subjects received atorvastatin at 80 mg once daily via oral administration of a single tablet.
Subjects were randomized within 96 hours of hospital admission for an index ACS event, or within 96 hours of index ACS event diagnosis if already hospitalized. Prior to randomization, subjects were screened for pertinent medical history, and baseline levels of LDL and hs-CRP were measured. Baseline sPLA2 levels were also measured in a random subset of subjects. Percutaneous revascularization, if required or planned for a particular subject, was performed prior to randomization.
Subjects were excluded if they were receiving statin therapy at maximum recommended or tolerated dosage (i.e., 40-80 mg QD for atorvastatin, fluvastatin, lovastatin, pravastatin, or simvastatin, or 20-40 mg QD rosuvastatin) at the time of the index ACS event. […]
For purposes of this study, MACEs included all-cause mortality, non-fatal MI, documented UA requiring urgent hospitalization, revascularization occurring 60 days or more after the initial index ACS event, and non-fatal stroke. […] This final evaluation included at least a complete physical examination, a 12-lead ECG reading, measurement of LDL, hs-CRP, sPLA2, and IL-6 levels, and recordation of any MACEs during the study period.

[5] = Clinical trial in post-ACS subjects: MACE occurrence in diabetic subpopulation; details: cumulative at 16 weeks
Protocol: 625 adult (18 years of age or older) human subjects who had recently experienced an index ACS event (UA, NSTEMI, or STEMI) were randomized to receive placebo or A-002 at 500 mg once daily via oral administration in a double-blinded manner. A-002 was delivered in the form of two 250 mg tablets. In addition, all subjects received atorvastatin at 80 mg once daily via oral administration of a single tablet.
Subjects were excluded if they were receiving statin therapy at maximum recommended or tolerated dosage (i.e., 40-80 mg QD for atorvastatin, fluvastatin, lovastatin, pravastatin, or simvastatin, or 20-40 mg QD rosuvastatin) at the time of the index ACS event. During the trial, subjects were prevented from using any lipid-lowering therapy other than 80 mg atorvastatin and/or A-002.
For purposes of this study, MACEs included all-cause mortality, non-fatal MI, documented UA requiring urgent hospitalization, revascularization occurring 60 days or more after the initial index ACS event, and non-fatal stroke. Subjects were evaluated at various timepoints after randomization and at study completion. Each evaluation included measurement of serum LDL levels and recordation of any MACEs or less severe adverse events occurring since the previous evaluation. In addition, certain evaluation periods included measurement of one or more of hs-CRP, sPLA2, IL-6, and/or other biomarker levels, vital signs, weight, and/or waist circumference. […] This final evaluation included at least a complete physical examination, a 12-lead ECG reading, measurement of LDL, hs-CRP, sPLA2, and IL-6 levels, and recordation of any MACEs during the study period.

Row | SMILES | absorption and conversion to active molecule [1] | terminal half-life (t1/2) [1] | effect on total cholesterol, LDL-C, total LDL-C particle, and small LDL-C particle levels ([2]; once- or twice-daily administration, stable CVD population, diabetic and high baseline LDL-C subpopulations) | effect on levels of inflammatory markers such as hs-CRP and sPLA2 ([2]; stable populations) | absolute reduction in death, non-fatal MI, cardiac arrest with resuscitation, or worsening symptomatic myocardial ischemia [3] | relative reduction in death, non-fatal MI, cardiac arrest with resuscitation, or worsening symptomatic myocardial ischemia [3] | % of subjects who experienced a MACE [4] | Death, % of subjects [5] | Death, number of subjects [5] | MI, % of subjects [5] | MI, number of subjects [5] | Revascularization ≧ 60 days, % of subjects [5] | Revascularization ≧ 60 days, number of subjects [5] | Stroke, % of subjects [5] | Stroke, number of subjects [5] | Total MACEs, % of subjects [5] | UA requiring hospitalization, % of subjects [5] | UA requiring hospitalization, number of subjects [5]
1 | CCc1c(C(=O)C(N)=O)c2c(OCC(=O)OC)cccc2n1Cc1ccccc1 [A-002, [[3-(2-Amino-1,2-dioxoethyl)-2-ethyl-1-(phenylmethyl)-1H-indol-4-yl]oxy]acetic acid methyl ester] | rapidly absorbed and hydrolyzed to the active A-001 molecule | approximately ten | decreases | decreases |  |  |  |  |  |  |  |  |  |  |  |  |  | 
2 | CC(C)c1c(C(=O)Nc2ccccc2)c(-c2ccccc2)c(-c2ccc(F)cc2)n1CC[C@@H](O)C[C@@H](O)CC(=O)O [Placebo (atorvastatin only), atorvastatin] |  |  |  |  | 2.6% | 16% | 6.1% | 3.4% | 3 | 0.0% | 0 | 0.0% | 0 | 0.0% | 0 | 6.9% | 3.4% | 3
